Results published in ChEMBL document CHEMBL1132838, “Determination of the relative and absolute stereochemistry of a potent and alpha1A-selective adrenoceptor antagonist” (Bioorg Med Chem Lett, 2000).

Tests used:
[1] = target: T1, Alpha-1D adrenergic receptor (Homo sapiens, UniProt P25100); test: Tested for binding affinity against recombinant human Alpha-1D adrenergic receptor using [125I]-HEAT in competition binding assay
T1 sequence (P25100 whole entry): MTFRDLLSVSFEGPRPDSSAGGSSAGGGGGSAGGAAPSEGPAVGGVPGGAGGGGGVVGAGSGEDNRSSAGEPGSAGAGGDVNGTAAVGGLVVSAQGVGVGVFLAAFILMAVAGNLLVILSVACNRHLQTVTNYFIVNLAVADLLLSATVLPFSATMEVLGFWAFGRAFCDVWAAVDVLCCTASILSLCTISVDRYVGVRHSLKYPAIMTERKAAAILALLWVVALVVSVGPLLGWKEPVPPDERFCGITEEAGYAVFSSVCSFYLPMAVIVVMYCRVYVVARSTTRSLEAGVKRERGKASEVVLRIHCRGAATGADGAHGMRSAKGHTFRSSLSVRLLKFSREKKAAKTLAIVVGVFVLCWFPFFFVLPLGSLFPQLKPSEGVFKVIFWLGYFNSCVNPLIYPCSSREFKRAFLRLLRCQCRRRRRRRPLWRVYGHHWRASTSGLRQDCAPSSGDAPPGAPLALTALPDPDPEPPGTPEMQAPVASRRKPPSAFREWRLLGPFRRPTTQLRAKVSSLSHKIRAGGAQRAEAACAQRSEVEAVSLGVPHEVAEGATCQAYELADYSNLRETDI

[2] = target: T2, Alpha-1B adrenergic receptor (Homo sapiens, UniProt P35368); test: Tested for binding affinity against recombinant human Alpha-1B adrenergic receptor using [125I]HEAT in competition binding assay
T2 sequence (P35368 whole entry): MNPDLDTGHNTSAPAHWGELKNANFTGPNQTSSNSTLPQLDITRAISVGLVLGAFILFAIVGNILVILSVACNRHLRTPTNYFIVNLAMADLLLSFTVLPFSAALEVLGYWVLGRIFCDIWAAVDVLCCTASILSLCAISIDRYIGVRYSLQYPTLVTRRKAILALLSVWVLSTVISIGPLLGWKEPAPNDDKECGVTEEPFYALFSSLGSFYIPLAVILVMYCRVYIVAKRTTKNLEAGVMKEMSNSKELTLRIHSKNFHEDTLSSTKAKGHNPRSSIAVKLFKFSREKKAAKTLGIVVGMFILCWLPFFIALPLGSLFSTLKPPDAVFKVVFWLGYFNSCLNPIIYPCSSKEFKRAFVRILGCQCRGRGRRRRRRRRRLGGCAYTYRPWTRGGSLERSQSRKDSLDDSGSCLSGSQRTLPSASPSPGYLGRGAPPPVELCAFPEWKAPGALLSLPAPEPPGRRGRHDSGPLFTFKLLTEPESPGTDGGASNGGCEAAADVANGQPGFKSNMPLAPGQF

Compound | Ki [1] | Ki [2]
C[C@H]1OC(=O)N(C(=O)NCCCN2CCC(c3ccc(F)cc3)CC2)[C@@H]1c1ccc(F)c(F)c1 | 193 nM | 74 nM
C[C@@H]1OC(=O)N(C(=O)NCCCN2CCC(c3ccc(F)cc3)CC2)[C@@H]1c1ccc(F)c(F)c1 |  | 76 nM
C[C@H]1OC(=O)N(C(=O)NCCCN2CCC(c3ccc(F)cc3)CC2)[C@H]1c1ccc(F)c(F)c1 | 92 nM | 48 nM
